Data: paper PMC12829161 (BMC Microbiology, 2025)
Where a name gives a salt, the structure may show the parent alone. Bridge positions count the residues as written; N and C are the ends. Square brackets hold non-standard residues; d marks the D form. Peptide text beside a SMILES is read from it. * marks the point of attachment. X1 = CC[C@H](C)CCCCC(=O)*; Dab = NCC[C@H](N)C(=O)O

Experiments:
Assay type in all cases: cell-based, Pseudomonas aeruginosa
[1] = test system: PAO1 biofilm
[2] = test system: PA14 biofilm
[3] = test system: PAO1 biofilm; remark: listed apart in the source
[4] = test system: PA14 biofilm; remark: listed apart in the source

**Q.** Which results are given for `CC[C@H](C)CCCCC(=O)N[C@@H](CCN)C(=O)N[C@H](C(=O)N[C@@H](CCN)C(=O)N[C@H]1CCNC(=O)[C@H]([C@@H](C)O)NC(=O)[C@H](CCN)NC(=O)[C@H](CCN)NC(=O)[C@H](CC(C)C)NC(=O)[C@@H](Cc2ccccc2)NC(=O)[C@H](CCN)NC1=O)[C@@H](C)O` [Polymyxin B, Polymyxin B sulfate] (X1-[Dab]T[Dab][Dab][Dab][dF]L[Dab][Dab]T; lactam 4-C (inferred); N-terminus assumed)?
**A.** Reduction of total growth (OD600) vs untreated control [1]: at least 70%; Biofilm inhibition (CV) at sub-MICs and MICs vs untreated control [2]: no significant biofilm inhibition; Biofilm viability (TTC), % of untreated control [2]: approximately 6 (±6) %; Concentration at which total bacterial growth (OD600) is significantly inhibited [2]: 2 µg/mL; Increase in bacterial cells (total growth, OD600) [2]: No statistically significant increase; Biofilm viability (TTC), % of untreated control [3]: 65 (± 20) %; Concentration at which total bacterial growth (OD600) is significantly inhibited [3]: 4 µg/mL; Increase in biofilm mass (CV) vs untreated control [3]: over 200%; Total bacterial growth (OD600), % of untreated control [3]: approximately 170 (± 48) %; Reduction of total growth (OD600) vs untreated control [4]: at least 70%
